# Data: patent publication US6864217B2, “Herbicidal compositions with substituted phenylsulfonylureas for controlling weeds in rice” (Hoechst Schering AgrEvo GmbH, priority 1998, dated 2005)
# Assays:
# Oryza sativa [1] = test: Table 2a field trial, treatment at the 1-2 leaf stage rice: rice damage; conditions: 28 days after application
# Method: (§7) The examples mentioned below were carried out in the greenhouse, and in some instances, in field trials.
# Cyperus irria = test: Table 3 field trial, treatment at the 2 leaf stage weed grasses: weed control; assay type: in vivo; conditions: 28 days after application
# Method: as §7
# Oryza sativa [2] = test: Table 2 field trial, treatment at the 1-2 leaf stage rice: rice damage; conditions: 28 days after application
# Method: as §7
# Echinochloa crusgalli [3] = test: Table 18 field trial, treatment at the 1-2 leaf stage: weed control; assay type: in vivo; conditions: 14 days after application
# Source text: (§1) Field trial: Treatment at the 1-2 leaf stage, evaluation 14 days after the application.
# ECHCO = test: Table 2 field trial, treatment at the 2-3 leaf stage weed grasses: weed control; assay type: in vivo, Echinochloa colona; conditions: 28 days after application
# Method: as §7
# Oryza sativa [4] = test: Table 18 field trial, treatment at the 1-2 leaf stage: rice damage; assay type: in vivo; conditions: 14 days after application
# Source text: as §1
# Oryza sativa [5] = test: Table 3 field trial, treatment at the 4-5 leaf stage (seed rice): rice damage; conditions: 28 days after application
# Method: as §7
# Leptochloa filiformis = test: Table 2a field trial, treatment at the 2-3 leaf stage weed grasses: weed control; assay type: in vivo; conditions: 28 days after application
# Method: as §7
# Eleusine indica = test: Table 2 field trial, treatment at the 2-3 leaf stage weed grasses: weed control; assay type: in vivo; conditions: 28 days after application
# Method: as §7
# Oryza sativa [6] = test: Table 5 field trial, treatment at the 2-4 leaf stage rice: rice damage; assay type: in vivo; conditions: evaluation after 28 days
# Method: as §7
# Echinochloa crusgalli [7] = test: Table 5 field trial, treatment at the 2-4 leaf stage rice: weed control; assay type: in vivo; conditions: evaluation after 28 days
# Method: as §7
# Oryza sativa [8] = test: Table 16 greenhouse trial, treatment at the 2-3 leaf stage: rice damage; assay type: in vivo; conditions: 20 days after application
# Method: (§2) Seeds or rhizome pieces of mono- and dicotyledonous weed plants are placed into sandy loam soil in plastic pots, covered with soil and grown in a greenhouse under good growth conditions (temperature, atmospheric humidity, water supply). Weeds which are encountered in the cultivation of rice are cultivated in pots in which the water level is up to 2 cm over the soil surface. Three weeks after sowing, the test plants are treated at the three-leaf stage. The active compound combinations according to the invention, formulated as wettable powders or emulsion concentrates, and, in parallel experiments, the correspondingly formulated individual active compounds are sprayed onto the green parts of the plants at different dosages using an amount of water of 300 to 600 l/ha (converted), and, after about 3 to 4 weeks of the test plants in the greenhouse under optimum growth conditions (temperature, atmospheric humidity, water supply), the effect of the preparations is evaluated visually in comparison to untreated controls. In the case of rice or weeds which are encountered in the cultivation of rice, the active compounds are also added directly to the water for irrigation (application analogous to the so-called granules application) or sprayed onto plants and added to the water for irrigation. The experiments were designed with several, up to five, repetitions. The herbicidal compositions according to the invention also have good herbicidal post-emergence activity against a broad spectrum of economically important weed grasses and broad-leaved weeds.
# (§3) Greenhouse trail: Treatment at the 2-3 leaf stage, evaluation 20 days after the application.
# Cyperus serotinus = test: Table 16 greenhouse trial, treatment at the 2-3 leaf stage: weed control; assay type: in vivo; conditions: 20 days after application
# Method: as §2, §3
# Cucumis dipsaceus = test: Table 1: weed control by A1*), safener C3-1) and combination; assay type: in vivo
# Method: as §7
# [9] = system: Oryza sativa (paddy rice); test: Table 1: damage to paddy rice; assay type: in vivo
# Method: as §7
# Sagittaria pygmaea = test: Table 14 greenhouse trial, treatment at the 3-4 leaf stage: weed control; assay type: in vivo; conditions: 21 days after application
# Method: as §2
# (§4) Greenhouse trial: Treatment at the 3-4 leaf stage, evaluation 21 days after the application.
# Oryza sativa [10] = test: Table 14 greenhouse trial, treatment at the 3-4 leaf stage: rice damage; assay type: in vivo; conditions: 21 days after application
# Method: as §2, §4
# Scirpus juncoides = test: Table 10 greenhouse trial, treatment at the 1-2 leaf stage: weed control; assay type: in vivo; conditions: 20 days after application
# Method: as §2
# (§5) Greenhouse trial: Treatment at the 1-2 leaf stage, evaluation 20 days after the application.
# Oryza sativa [11] = test: Table 10 greenhouse trial, treatment at the 1-2 leaf stage: rice damage; assay type: in vivo; conditions: greenhouse trial, 20 days after application
# Method: as §2, §5
# Oryza sativa [12] = test: Table 23 field trial, treatment: 4-6 leaf stage: rice damage; assay type: in vivo; conditions: 36 days after application
# Source text: (§6) Field trial: Treatment: 4-6 leaf stage, evaluation 36 days after the application.
# Cyperus iria = test: Table 23 field trial, treatment: 4-6 leaf stage: weed control; assay type: in vivo; conditions: 36 days after application
# Source text: as §6
smiles,measurement,setting,value
"CCOc1ccccc1OS(=O)(=O)NC(=O)Nc1nc(OC)cc(OC)n1 [B63a), ethoxysulfuron]",ORYSW % damage,Oryza sativa [1]; 45 g of ai/ha,10%
same,ORYSW % damage,Oryza sativa [1]; 60 g of ai/ha,10%
same,CYPIR % control,Cyperus irria; 22.5 g of ai/ha,60%
same,CYPIR % control,Cyperus irria; 45 g of ai/ha,95%
same,ORYSW % damage,Oryza sativa [2]; 45 g of ai/ha,10%
same,ORYSW % damage,Oryza sativa [2]; 60 g of ai/ha,10%
same,ECHCG % control,Echinochloa crusgalli [3]; 5 g of ai/ha,7%
same,ECHCG % control,Echinochloa crusgalli [3]; 10 g of ai/ha,7%
same,ECHCO % control,ECHCO; 45 g of ai/ha,0%
same,ECHCO % control,ECHCO; 60 g of ai/ha,0%
same,ORYSW % damage,Oryza sativa [4]; 5 g of ai/ha,7%
same,ORYSW % damage,Oryza sativa [4]; 10 g of ai/ha,7%
same,ORYSW % damage,Oryza sativa [5]; 22.5 g of ai/ha,0%
same,ORYSW % damage,Oryza sativa [5]; 45 g of ai/ha,0%
same,LEFFI % control,Leptochloa filiformis; 45 g of ai/ha,0%
same,LEFFI % control,Leptochloa filiformis; 60 g of ai/ha,0%
same,ELEIN % control,Eleusine indica; 45 g of ai/ha,0%
same,ELEIN % control,Eleusine indica; 60 g of ai/ha,0%
"COP(=S)(OC)SCC(=O)N(c1ccc(Cl)cc1)C(C)C [B19), S-[2-[(4-chlorophenyl)(1-methylethyl)amino]-2-oxo-ethyl]O,O-dimethylphosphorodithioate]",ORYSW % damage,Oryza sativa [6]; 250 g of ai/ha,2%
same,ORYSW % damage,Oryza sativa [6]; 500 g of ai/ha,10%
same,ECHCG % control,Echinochloa crusgalli [7]; 250 g of ai/ha,30%
same,ECHCG % control,Echinochloa crusgalli [7]; 500 g of ai/ha,40%
"COc1cc(OC)nc(Oc2cccc(Oc3nc(OC)cc(OC)n3)c2C(=O)ON=C(c2ccccc2)c2ccccc2)n1 [B72), pyribenzoxim]",ORYSW % damage,Oryza sativa [8]; 18.75 g of ai/ha,3%
same,ORYSW % damage,Oryza sativa [8]; 37.5 g of ai/ha,8%
same,ORYSW % damage,Oryza sativa [8]; 75 g of ai/ha,8%
same,CYPSE % control,Cyperus serotinus; 18.75 g of ai/ha,25%
same,CYPSE % control,Cyperus serotinus; 37.5 g of ai/ha,35%
same,CYPSE % control,Cyperus serotinus; 75 g of ai/ha,60%
"CCOC(=O)C1=NOC(c2ccccc2)(c2ccccc2)C1 [C3-1), ethyl 5,5-diphenyl-2-isoxazoline-3-carboxylate]",CUMDI % control,Cucumis dipsaceus; 15 g of ai/ha,0%
same,CUMDI % control,Cucumis dipsaceus; 30 g of ai/ha,0%
same,CUMDI % control,Cucumis dipsaceus; 60 g of ai/ha,0%
same,ORYSW % damage,[9]; 15 g of ai/ha,0%
same,ORYSW % damage,[9]; 30 g of ai/ha,0%
same,ORYSW % damage,[9]; 60 g of ai/ha,0%
"CCCOCCN(C(=O)CCl)c1c(CC)cccc1CC [B4), 2-chloro-N-(2,6-diethylphenyl)-N-(2-propoxyethyl)acetamide]",SAGPY % control,Sagittaria pygmaea; 125 g of ai/ha,65%
same,SAGPY % control,Sagittaria pygmaea; 250 g of ai/ha,70%
same,SAGPY % control,Sagittaria pygmaea; 500 g of ai/ha,75%
same,ORYSW % damage,Oryza sativa [10]; 125 g of ai/ha,15%
same,ORYSW % damage,Oryza sativa [10]; 250 g of ai/ha,15%
same,ORYSW % damage,Oryza sativa [10]; 500 g of ai/ha,35%
"COc1cc(OC)nc(NC(=O)NS(=O)(=O)c2c(C(=O)O)cnn2C)n1 [B59), 5-[[[[(4,6-dimethoxy-2-pyrimidinyl)amino]carbonyl]-amino]sulfonyl]-1-methyl-1H-pyrazol-4-carboxylic acid]",SCIJU % control,Scirpus juncoides; 7.5 g of ai/ha,50%
same,SCIJU % control,Scirpus juncoides; 15 g of ai/ha,55%
same,SCIJU % control,Scirpus juncoides; 30 g of ai/ha,60%
same,ORYSW % damage,Oryza sativa [11]; 7.5 g of ai/ha,0%
same,ORYSW % damage,Oryza sativa [11]; 15 g of ai/ha,0%
same,ORYSW % damage,Oryza sativa [11]; 30 g of ai/ha,2%
"CC(C)N1C(=O)c2ccccc2NS1(=O)=O [B39), 3-isopropyl-1H-2,1,3-benzothiadiazin-4(3H)-one-2,2-dioxide]",ORYSW % damage,Oryza sativa [12]; 250 g of ai/ha,0%
same,ORYSW % damage,Oryza sativa [12]; 400 g of ai/ha,0%
same,ORYSW % damage,Oryza sativa [12]; 800 g of ai/ha,3%
same,CYPIR % control,Cyperus iria; 250 g of ai/ha,42%
same,CYPIR % control,Cyperus iria; 400 g of ai/ha,78%
same,CYPIR % control,Cyperus iria; 800 g of ai/ha,97%
